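Assay format: 96-well plates, 48-hour exposure. TGI: total growth inhibition.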
Assays:
Test in all cases: inhibition of tumour cell growth, NCI panel, 48 h
MALME-3M melanoma = system: MALME-3M melanoma
KM12 colon = system: KM12 colon
M14 melanoma = system: M14 melanoma
SK-MEL-5 melanoma = system: SK-MEL-5 melanoma
DU-145 prostate = system: DU-145 prostate
OVCAR-4 ovarian = system: OVCAR-4 ovarian
EKVX NSCLC = system: EKVX NSCLC
UACC-62 melanoma = system: UACC-62 melanoma
HCC-2998 colon = system: HCC-2998 colon
BT-549 breast = system: BT-549 breast

Row | Compound | TGI (MALME-3M melanoma) [µM] | TGI (KM12 colon) [µM] | TGI (M14 melanoma) [µM] | TGI (SK-MEL-5 melanoma) [µM] | TGI (DU-145 prostate) [µM] | TGI (OVCAR-4 ovarian) [µM] | TGI (EKVX NSCLC) [µM] | TGI (UACC-62 melanoma) [µM] | TGI (HCC-2998 colon) [µM] | TGI (BT-549 breast) [µM]
1 | CC(C)(C)c1ccc(NS(=O)(=O)c2ccc(N)cc2)cc1 | 39.6 | > 100 | 44.2 | 32.5 | 89.5 | > 100 | 71.8 | 30.3 | 39.5 | 54.8
2 | C=C(C)[C@@]12C[C@H](OC(=O)[C@H](O)[C@@H](NC(=O)c3ccccc3)c3ccccc3)C(C)=C1[C@@H](OC(C)=O)C(=O)[C@@]1(C)C([C@@H]2OC(=O)c2cc(F)cc(F)c2)C2(OC(C)=O)CO[C@@H]2C[C@@H]1O (stereo not given in full) | > 8.81 | > 3.26 | > 10 | > 10 | > 5.16 | > 10 | > 10 | 3.26 | 2.16 | 2.99
3 | O=C1C=CC(=O)c2c(O)c(NCCN3CCOCC3)c(Cl)c(O)c21 | 3.31 | > 10 | 3.64 | 2.35 | 3.12 | 3.22 | > 10 | 3.03 | 3.35 | 3.98

Source: PubChem BioAssay (NCI)
